Data taken from publication PMC8847695 (Frontiers in Chemistry, 2022).

Legend:
Format in all cases: binding
Details in all cases: 1 = hit, 0 = no hit
AAK1 (121-471) = AAK1 (121-471) (Homo sapiens, UniProt Q2M2I8); experiment: STD-NMR fragment screening, AAK1
Protocol: (§1) All fragments were stored at −20°C as solids in argon flushed glass bottles. For NMR screening, fragments were weighed and dissolved in DMSO-d6 to a stock concentration of 300 mM. Mother plates were prepared with a 100 mM concentration. From these plates, daughter plates were prepared with the fragments mixed in the plates to a concentration of 50 mM for each fragment. Daughter plates were opened a maximum of eight times. The plates were argon flushed and sealed with a HT121TS (HTA) and Foil Heat Seal (Biozym).
(§2) For long time measurements, like the protein ^1H NMR spectrum, the buffer exchange was performed twice to reduce residual buffer peaks. All experiments were performed on a Bruker Avance III HDX 700 instrument, equipped with a 5 mm Prodigy TCI cryo-probehead. For every protein, a standard ^1H NMR experiment with 1 k scans and water suppression through presaturation was performed. […] The on-resonance frequency, which was determined from the ^1H NMR spectra of the protein, was between 0.5 and 0.6 ppm; 40 ppm was used as the off-resonance frequency. For an interleaved acquisition of the on- and off-resonance, a pseudo-2D scheme was applied. The saturation was done by Gaussian pulses with a length of 50 ms and 60 dB of attenuation, with an interpulse delay of 1 ms leading to an excitation bandwidth of about 42 Hz. The screening was done with 16 scans of on- and off-resonance scans each, with a 3 s saturation time. The samples contained final concentrations of 20 µM protein, 10% (^V/V) DMSO-d6, and 1 mM of each of the two fragments. A ^1H-NMR experiment was performed for each compound to act as a reference spectrum in the STD experiments. All NMR experiments were carried out at 25°C.
(§3) Fifteen of these compounds contain the same halogen twice. No compound bears mixtures of different halogen atoms. Four proteins (AAK1, CAMK1G, IDO1, and DOT1L) were screened against this HEFLib using STD-NMR. A fragment was considered a hit if the peak intensity in the difference spectrum was three times higher than the local background noise. […] Chemical compatibility and peak complementarity were assured for these mixtures. Samples containing more than two fragments were avoided to minimize the possible target competition and to decrease the risk of fragment interactions. […] The ^1H reference NMR spectrum of the mixture is shown in red for comparison. […] As fragment mixtures can lead to competitive effects between their fragments, it is not advised to use the quantification of peak mixtures for hit ranking.

CAMK1G (1-320) = biological target: T1, CAMK1G (1-320) (Homo sapiens, UniProt Q96NX5); experiment: STD-NMR fragment screening, CAMK1G
T1 construct: made in house; host or cells: E. coli BL21 (DE3) pLysS
T1 sequence (Q96NX5 1-320): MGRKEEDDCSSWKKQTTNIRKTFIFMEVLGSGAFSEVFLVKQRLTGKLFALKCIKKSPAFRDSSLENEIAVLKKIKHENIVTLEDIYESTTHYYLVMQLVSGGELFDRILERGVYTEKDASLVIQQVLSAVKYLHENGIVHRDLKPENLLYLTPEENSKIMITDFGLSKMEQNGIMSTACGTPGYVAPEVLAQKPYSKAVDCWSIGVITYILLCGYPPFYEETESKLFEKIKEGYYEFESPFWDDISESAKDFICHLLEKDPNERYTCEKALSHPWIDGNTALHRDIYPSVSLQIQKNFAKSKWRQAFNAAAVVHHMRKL
Protocol: as §1, §2, §3

IDO1 (1-435) = biological target: T2, IDO1 (1-435) (Homo sapiens, UniProt P14902); experiment: STD-NMR fragment screening, IDO1
T2 construct: His-tag of pET15b with TEV site (thrombin site replaced) (cleaved yes); made in house; host or cells: E. coli Rosetta 2 (DE3) pLysS
T2 sequence (P14902 whole entry, the tested form may be a part): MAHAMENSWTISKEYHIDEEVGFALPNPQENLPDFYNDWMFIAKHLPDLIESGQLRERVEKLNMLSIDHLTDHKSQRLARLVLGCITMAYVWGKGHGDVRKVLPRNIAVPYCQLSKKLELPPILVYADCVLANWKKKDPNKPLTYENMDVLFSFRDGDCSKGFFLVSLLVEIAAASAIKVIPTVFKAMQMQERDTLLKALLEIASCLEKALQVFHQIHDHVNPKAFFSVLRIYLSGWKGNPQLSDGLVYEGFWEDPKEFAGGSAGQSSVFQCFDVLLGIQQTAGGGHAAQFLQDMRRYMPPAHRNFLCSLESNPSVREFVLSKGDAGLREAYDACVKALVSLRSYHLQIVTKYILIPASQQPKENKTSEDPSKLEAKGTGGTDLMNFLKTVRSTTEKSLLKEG
Protocol: as §1, §2, §3

DOT1L (1-416) = biological target: T3, DOT1L (1-416) (Homo sapiens, UniProt Q8TEK3); experiment: STD-NMR fragment screening, DOT1L
T3 construct: made in house; host or cells: E. coli BL21 (DE3) pLysS
T3 sequence (Q8TEK3 1-416): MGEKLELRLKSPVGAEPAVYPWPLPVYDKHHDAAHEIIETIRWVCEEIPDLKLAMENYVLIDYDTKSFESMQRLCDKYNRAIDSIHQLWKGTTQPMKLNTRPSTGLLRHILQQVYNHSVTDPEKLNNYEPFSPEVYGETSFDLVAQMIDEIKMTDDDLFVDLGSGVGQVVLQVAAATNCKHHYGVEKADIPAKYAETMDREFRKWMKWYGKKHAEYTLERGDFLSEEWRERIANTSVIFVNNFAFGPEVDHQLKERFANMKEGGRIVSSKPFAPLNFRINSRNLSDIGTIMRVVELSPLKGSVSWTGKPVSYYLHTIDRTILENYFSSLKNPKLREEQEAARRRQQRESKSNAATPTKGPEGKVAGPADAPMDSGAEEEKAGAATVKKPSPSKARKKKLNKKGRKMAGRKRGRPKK
Protocol: as §1, §2, §3

Chain of AAK1 (121-471) (Q2M2I8 46-315 limits assumed): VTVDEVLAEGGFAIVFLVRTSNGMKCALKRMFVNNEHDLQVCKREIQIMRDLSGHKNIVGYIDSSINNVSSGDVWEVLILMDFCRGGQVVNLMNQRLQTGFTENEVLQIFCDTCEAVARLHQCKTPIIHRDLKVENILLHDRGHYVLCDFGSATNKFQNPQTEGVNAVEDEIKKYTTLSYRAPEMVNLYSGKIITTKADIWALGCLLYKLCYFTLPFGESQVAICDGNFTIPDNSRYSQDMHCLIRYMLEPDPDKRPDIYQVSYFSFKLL

## O=c1[nH]c2ccc(Cl)nc2[nH]1 [Fragment B02290474]
AAK1 (121-471)
  AAK1 (STD-NMR hit flag): 1
CAMK1G (1-320)
  CAMK1G (STD-NMR hit flag): 0
IDO1 (1-435)
  IDO1 (STD-NMR hit flag): 0
DOT1L (1-416)
  DOT1L (STD-NMR hit flag): 0

## Nc1ncc(Br)cc1CO [Fragment B02290475]
AAK1 (121-471)
  AAK1 (STD-NMR hit flag): 1
CAMK1G (1-320)
  CAMK1G (STD-NMR hit flag): 1
IDO1 (1-435)
  IDO1 (STD-NMR hit flag): 0
DOT1L (1-416)
  DOT1L (STD-NMR hit flag): 0

## Nc1nc(Cl)nc2[nH]cnc12 [Fragment B02290476]
AAK1 (121-471)
  AAK1 (STD-NMR hit flag): 0
CAMK1G (1-320)
  CAMK1G (STD-NMR hit flag): 0
IDO1 (1-435)
  IDO1 (STD-NMR hit flag): 0
DOT1L (1-416)
  DOT1L (STD-NMR hit flag): 0

## Clc1cscn1 [Fragment B02290477]
AAK1 (121-471)
  AAK1 (STD-NMR hit flag): 0
CAMK1G (1-320)
  CAMK1G (STD-NMR hit flag): 0
IDO1 (1-435)
  IDO1 (STD-NMR hit flag): 0
DOT1L (1-416)
  DOT1L (STD-NMR hit flag): 0

## CC(Cn1cc(Cl)cn1)C(=O)O (stereo not shown) [Fragment B02290481]
AAK1 (121-471)
  AAK1 (STD-NMR hit flag): 0
CAMK1G (1-320)
  CAMK1G (STD-NMR hit flag): 0
IDO1 (1-435)
  IDO1 (STD-NMR hit flag): 0
DOT1L (1-416)
  DOT1L (STD-NMR hit flag): 0

## Brc1cnc2[nH]nnc2c1 [Fragment B02290482]
AAK1 (121-471)
  AAK1 (STD-NMR hit flag): 0
CAMK1G (1-320)
  CAMK1G (STD-NMR hit flag): 0
IDO1 (1-435)
  IDO1 (STD-NMR hit flag): 0
DOT1L (1-416)
  DOT1L (STD-NMR hit flag): 0

## CN1CCN(C(CN)c2ccccc2Cl)CC1 (stereo not shown) [Fragment B02290483]
AAK1 (121-471)
  AAK1 (STD-NMR hit flag): 0
CAMK1G (1-320)
  CAMK1G (STD-NMR hit flag): 0
IDO1 (1-435)
  IDO1 (STD-NMR hit flag): 0
DOT1L (1-416)
  DOT1L (STD-NMR hit flag): 0

## Cc1onc(N)c1I [Fragment B02290521]
AAK1 (121-471)
  AAK1 (STD-NMR hit flag): 1
CAMK1G (1-320)
  CAMK1G (STD-NMR hit flag): 1
IDO1 (1-435)
  IDO1 (STD-NMR hit flag): 1
DOT1L (1-416)
  DOT1L (STD-NMR hit flag): 0

## Cc1nn(C)c(Cl)c1S(N)(=O)=O [Fragment B02290522]
AAK1 (121-471)
  AAK1 (STD-NMR hit flag): 1
CAMK1G (1-320)
  CAMK1G (STD-NMR hit flag): 0
IDO1 (1-435)
  IDO1 (STD-NMR hit flag): 1
DOT1L (1-416)
  DOT1L (STD-NMR hit flag): 0

## O=C(O)c1cc(Br)c[nH]c1=O [Fragment B02290523]
AAK1 (121-471)
  AAK1 (STD-NMR hit flag): 0
CAMK1G (1-320)
  CAMK1G (STD-NMR hit flag): 0
IDO1 (1-435)
  IDO1 (STD-NMR hit flag): 0
DOT1L (1-416)
  DOT1L (STD-NMR hit flag): 0

## Cn1c(=O)cc(Cl)[nH]c1=O [Fragment B02290524]
AAK1 (121-471)
  AAK1 (STD-NMR hit flag): 0
CAMK1G (1-320)
  CAMK1G (STD-NMR hit flag): 0
IDO1 (1-435)
  IDO1 (STD-NMR hit flag): 0
DOT1L (1-416)
  DOT1L (STD-NMR hit flag): 0

## Cc1ccc(Cl)c(CN)c1F [Fragment B02290525]
AAK1 (121-471)
  AAK1 (STD-NMR hit flag): 0
CAMK1G (1-320)
  CAMK1G (STD-NMR hit flag): 0
IDO1 (1-435)
  IDO1 (STD-NMR hit flag): 0
DOT1L (1-416)
  DOT1L (STD-NMR hit flag): 0

## O=C(O)c1c(I)ccnc1F [Fragment B02290658]
AAK1 (121-471)
  AAK1 (STD-NMR hit flag): 0
CAMK1G (1-320)
  CAMK1G (STD-NMR hit flag): 0
IDO1 (1-435)
  IDO1 (STD-NMR hit flag): 0
DOT1L (1-416)
  DOT1L (STD-NMR hit flag): 0

## O=C(O)c1nccc(Cl)c1Cl [Fragment B02290659]
AAK1 (121-471)
  AAK1 (STD-NMR hit flag): 0
CAMK1G (1-320)
  CAMK1G (STD-NMR hit flag): 0
IDO1 (1-435)
  IDO1 (STD-NMR hit flag): 0
DOT1L (1-416)
  DOT1L (STD-NMR hit flag): 0

## CN(C)S(=O)(=O)n1nccc1Br [Fragment B02290660]
AAK1 (121-471)
  AAK1 (STD-NMR hit flag): 1
CAMK1G (1-320)
  CAMK1G (STD-NMR hit flag): 0
IDO1 (1-435)
  IDO1 (STD-NMR hit flag): 0
DOT1L (1-416)
  DOT1L (STD-NMR hit flag): 1

## CC(=O)c1c[nH]c2ncnc(Cl)c12 [Fragment B02290661]
AAK1 (121-471)
  AAK1 (STD-NMR hit flag): 1
CAMK1G (1-320)
  CAMK1G (STD-NMR hit flag): 1
IDO1 (1-435)
  IDO1 (STD-NMR hit flag): 1
DOT1L (1-416)
  DOT1L (STD-NMR hit flag): 0
